The nature of series [1]: Plasma and uterine artery biopterins by HPLC in treated pregnant mice. As to conditions: for systemic oxidation of BH4 to BH2: Gch1 deficient and control mice, oral supplementation.
Description: After centrifugation at 13,200 rpm for 10 min at 4° C., supernatant was removed and ice-cold acid precipitation buffer (1 M phosphoric acid, 2 M trichloroacetic acid, 1 mM dithioerythritol) was added. Following centrifugation at 13,200 rpm for 10 min at 4° C., the supernatant was removed and injected onto the HPLC system.
A further series deals with Gch1^fl/flTie2cre mice. As to the kind of experiment: Systolic blood pressure by tail-cuff plethysmography in pregnant mice. As to conditions: oral 5-MTHF begun at day 10.5 or 16.5.
Series [2] relates to HUVECs. As to the kind of experiment: Intracellular BH4 and biopterins by HPLC in HUVECs. The format is cell-based, human. From the text: (§1) Umbilical cords were collected at birth and human umbilical vein endothelial cells (HUVECs) were isolated and stored in liquid nitrogen according to standard operating procedures within a research tissue bank (Oxford Cardiovascular Tissue Bioresource; ethical approval 09/[…]/68, 07/[…]/148 and 11/SC/0230). For the purpose of the current study, HUVECs were identified from normotensive pregnancies and pregnancies complicated by preeclampsia, matched for maternal age and gestation. HUVECs and human uterine microvascular endothelial cells (HutMECs; Cat C-12295, Promocell) were cultured in EBM2 (endothelial basal medium) with bullet kit as recommended (Cat CC-3162, Lonza). All cell cultures were maintained in humidified 5% CO2 at 37° C. Primary HUVEC and HutMEC cells, obtained between passages 1-3 were and passages 4-6, respectively, were used for all experiments. sEnd.1 endothelial cells were grown in Dulbecco's modified Eagle's medium (Invitrogen) supplemented with glutamine (2 mmol/liter), penicillin (100 units/ml), and streptomycin (0.1 mg/ml).

Series [3] concerns the target T1, endothelial nitric oxide synthase (eNOS) (Mus musculus, UniProt P70313).
T1 construct: Conversion of 14C arginine to 14C citrulline was used as a measure of endothelial nitric oxide synthase activity (eNOS); endogenous in cells; host or cells: sEnd.1 murine endothelial cell line
As to the kind of experiment: eNOS activity (14C arginine to 14C citrulline) in sEnd.1 cells. Type of series: cell-based. Particulars: 5MTHF 10 μm, 16 h (FIG. 34).

A further series relates to uterine arteries. As to the kind of experiment: Wire myography of isolated uterine arteries with inhibitors in the bath. Also on record: species or system mouse. From the text:
All drugs used were purchased from Sigma Chemical Company.

The test system of a further series is sEnd.1 cells. As to the kind of experiment: Superoxide and ROS production by DHE HPLC in sEnd.1 cells. The format is cell-based, mouse. Particulars: folic acid 10 μm, 16 h (FIG. 33).
In another series the test system is women with pre-eclampsia. As to conditions: folic acid supplementation, clinical trials; cited from earlier work.
For series [4], the system named is sEnd.1 murine endothelial cells. As to the kind of experiment: Intracellular BH4 and biopterins by HPLC in sEnd.1 cells. Type of series: cell-based, mouse.
Source text: as §1, with “mg/ml). GCH1-specific, ON-TARGETplus SMARTpool siRNA was purchased from Dharmacon Thermo Scientific. […] The cells were cultured for 72 h, and gene silencing was detected by analysis of GTPCH protein expression by Western blotting using GTPCH-specific antibodies (a gift from S.Gross, Cornell University New York), in cells using standard protocols.” for “mg/ml).”

The subject of a further series is people with PKU. Particulars: most people with PKU; cited from earlier work.
Series [5] concerns human uterine microvascular endothelial cells (HutMECs). As to the kind of experiment: Matrigel endothelial tube formation, HutMECs with GCH1 siRNA. The format is cell-based. As to conditions: HutMECs treated with GCH1 siRNA; sepiapterin 1 μM. As for the experimental part: (§2) To assess tube formation ability of endothelial cells, a 96-well plate was evenly coated with 50 μl of growth factor-reduced Matrigel (BD Biosciences, UK). Endothelial cells were plated at a density of 1×10^4 cells per well. The plate was incubated at 37° C. for 16 hours before photomicroscopy. Each sample was replicated in triplicate and the image of each well was taken at ×4 magnification using a Nikon Eclipse TE2000-U microscope (Nikon Ltd, London, UK). Images obtained from Matrigel assay were adjusted for mean brightness using acquisition software to control the bright field illumination of the microscope (Simple PCI version 6.6.0.0; Hamamatsu Corporation, Sewickley, PA). Images were saved as TIFF files, and tube formation analysed using AngioSys 1.0 (TCS Cell Works, UK). Image threshold was adjusted based on the intensity values of the monochrome image and each image then skeletonized to reduce to one pixel wide. […] The total length of lines was quantified in pixels (then converted to micrometers) and total number of branch points was recorded.
(§3) GCH1-specific, ON-TARGETplus SMARTpool siRNA was purchased from Dharmacon Thermo Scientific. […] The cells were cultured for 72 h, and gene silencing was detected by analysis of GTPCH protein expression by Western blotting using GTPCH-specific antibodies (a gift from S.Gross, Cornell University New York), in cells using standard protocols.

In series [6] the target is T2, endothelial nitric oxide synthase (eNOS) (Homo sapiens, UniProt P29474).
T2 construct: endogenous in cells; host or cells: primary HUVECs (passages 1-3) from normotensive and pre-eclamptic pregnancies
As to the kind of experiment: NO synthesis by eNOS (14C arginine to citrulline conversion) in HUVECs. Type of series: cell-based. Particulars: HUVECs from NT and PE pregnancies; sepiapterin 1 μM.
Source text: Umbilical cords were collected at birth and human umbilical vein endothelial cells (HUVECs) were isolated and stored in liquid nitrogen according to standard operating procedures within a research tissue bank (Oxford Cardiovascular Tissue Bioresource; ethical approval 09/H0606/68, 07/H0606/148 and 11/SC/0230). For the purpose of the current study, HUVECs were identified from normotensive pregnancies and pregnancies complicated by preeclampsia, matched for maternal age and gestation. […] All cell cultures were maintained in humidified 5% CO2 at 37° C.
NO synthesis by eNOS was assessed by conversion of ^14C L-arginine to citrulline, in the presence and absence of N-monomethyl-L-arginine (1 mM, Sigma), as described previously^9. Briefly, HUVES were incubated for 4 hours at 37° C. in 200 μl Krebs-HEPES buffer containing ^14C L-arginine (2 μl of 50 μCi/mL). Samples were run on a SCX 300 cation exchange HPLC column (Sigma) with online scintillation detection. Background signals were corrected from samples with ^14C L-arginine alone without cells.

Series [7] relates to sEND.1 mouse endothelial cell line. As to the kind of experiment: Matrigel endothelial tube formation, sEND.1 cells with Gch1 siRNA. Type of series: cell-based. As to conditions: sEND.1 treated with specific Gch1 siRNA; sepiapterin 1 μM. As for the experimental part:
as §2, §3

Series [8] concerns HUVECs. As to the kind of experiment: Matrigel endothelial tube formation, HUVECs from NT and PE pregnancies. Type of series: cell-based, human. Particulars: sepiapterin 1 μM. The text has this: Umbilical cords were collected at birth and human umbilical vein endothelial cells (HUVECs) were isolated and stored in liquid nitrogen according to standard operating procedures within a research tissue bank (Oxford Cardiovascular Tissue Bioresource; ethical approval 09/H0606/68, 07/H0606/148 and 11/SC/0230). For the purpose of the current study, HUVECs were identified from normotensive pregnancies and pregnancies complicated by preeclampsia, matched for maternal age and gestation. HUVECs and human uterine microvascular endothelial cells (HutMECs; Cat C-12295, Promocell) were cultured in EBM2 (endothelial basal medium) with bullet kit as recommended (Cat CC-3162, Lonza). All cell cultures were maintained in humidified 5% CO2 at 37° C. […]
To assess tube formation ability of endothelial cells, a 96-well plate was evenly coated with 50 μl of growth factor-reduced Matrigel (BD Biosciences, UK). […] Images were saved as TIFF files, and tube formation analysed using AngioSys 1.0 (TCS Cell Works, UK). […] The total length of lines was quantified in pixels (then converted to micrometers) and total number of branch points was recorded.

Entries after “also recorded” stand apart in the source; their conditions may differ. Counter-ions that a name gives are not always drawn. A value given as a limit tells only on which side of the number the result lay.

Description for Gch1^fl/flTie2cre mice: Female Gch1^fl/flTie2cre mice and their Gch1^fl/fl littermates (thereafter referred to as wild-type) were used for all experiments at 10 to 16 weeks.
Systolic blood pressure and heart rate was determined using a computerized tail-cuff system (Visitech, USA) in conscious mice^6. Experiments were performed between the hours of 8 and 12 am. The animal tails were passed through a cylindrical latex tail-cuff and taped down to reduce movement. Twenty readings were taken per mouse of which the first 5 readings were discarded. The remaining 15 readings were used to calculate the mean systolic blood pressure and heart rate in each mouse.

`CN1c2c(nc(N)[nH]c2=O)NC[C@@H]1CNc1ccc(C(=O)N[C@@H](CCC(=O)O)C(=O)O)cc1` [5-MTHF, 5-methyltetrahydrofolate]: the “systemic oxidation of BH4 to BH2” value in series [1] is given as “prevented”. Further, in the series with Gch1^fl/flTie2cre mice, the “time from initiation of treatment to reduction in blood pressure” value was not above 2 days.

Take `CN1c2c([nH]c(N)nc2=O)NC[C@@H]1CNc1ccc(C(=O)N[C@@H](CCC(=O)O)C(=O)O)cc1` [Arcofolin]: the BH4 levels entry in the series with HUVECs [2] (HUVECs from pregnancies with high blood pressure, 5MTHF 10 μm, 16 h at 37° C. (FIG. 36)) is given as “increases”.

Turning to `C[C@H](O)[C@H](O)[C@H]1CNc2nc(N)[nH]c(=O)c2N1` [BH4, tetrahydrobiopterin], the “systemic oxidation of BH4 to BH2” value in series [1] is “rapidly oxidised”. In addition, the “BH4/BH2+B (total biopterins) ratio” value in [1] (pregnant mice, E18.5, oral BH4 200 mg/kg/day) is reported as “reduction”. The “plasma BH4 levels” value in series [1] (pregnant mice, E18.5, oral in chow from 3 days before timed matings, BH4 200 mg/kg/day, 5-MTHF 15 mg/kg/day) was “increased”.

Consider `COC(=O)[C@@H](N)CCCNC(=N)N[N+](=O)[O-]` [L-NAME], for which, in series [3], the “activity of endothelial nitric oxide synthase (L-arginine to L-citrulline conversion)” value was “inhibited”. The “ACh vasorelaxations in the presence of L-NAME” value in the series with uterine arteries (Gch1^fl/flTie2cre uterine arteries, L-NAME 100 μM) is “did not significantly inhibit”. For the same compound, the “vasoconstriction response to U46619 in the presence of L-NAME” value with uterine arteries (uterine arteries of pregnant Gch1^fl/flTie2cre mice, L-NAME 100 μM) was “unchanged”; in the series on uterine arteries (uterine arteries of pregnant wild-type mice, L-NAME 100 μM), “increased”.

On to `Nc1nc2ncc(CNc3ccc(C(=O)N[C@@H](CCC(=O)O)C(=O)O)cc3)nc2c(=O)[nH]1` [folic acid], for which the “generation of reactive oxygen species (ROS)” value in the series with sEnd.1 cells is reported as “increased”. Also, the “clinical benefit in pre-eclampsia” value in the series on women with pre-eclampsia is “no benefit”. The BH4 levels result in [4] (sEnd.1 cells, folic acid 10 μm, 16 h at 37° C., with or without MTX 1 μm (FIG. 28)) is “no effect”.

With `COc1ccc2c(c1)c(CC(=O)O)c(C)n2C(=O)c1ccc(Cl)cc1` [indomethacin], the “endothelium-dependent vasodilation to ACh in the presence of inhibitors” value in the series with uterine arteries (uterine arteries, pregnant or non-pregnant wild-type and Gch1^fl/flTie2cre mice, indomethacin 10 μM, apamin 50 nM, charybdotoxin 100 nM) is listed as “minimal effect”.

Turning to `C[C@H](O)[C@H](O)[C@H]1CNc2nc(N)[nH]c(=O)c2N1` [sapropterin dihydrochloride], the “clinical benefit in PKU” value in the series with people with PKU is recorded as “little or no benefit”.

For `C[C@H](O)C(=O)C1=Nc2c(nc(N)[nH]c2=O)NC1` [sepiapterin], the “endothelial cell growth and tubule formation” value was “rescued” in series [5], “fully restored; also recorded: rescued” in [7] and “restored; also recorded: rescued” with HUVECs [8]. The BH4 levels entry is reported as “normalized” in the series on HUVECs [2] (HUVECs from hypertensive/pre-eclamptic pregnancies, sepiapterin 1 μM) and “increased” in [4] (sEND.1 treated with specific Gch1 siRNA, sepiapterin 1 μM). Also, the eNOS activity entry in [6] was “normalized; also recorded: significantly increased”.

Values taken from patent US20240316050A1 (OXFORD UNIVERSITY INNOVATION LIMITED, priority 2020, published 2024).
